Consider five compounds from patent publication US20260294910A1, “ORAL PHARMACEUTICAL COMPOSITIONS” (Assembly Biosciences, Inc., priority 2023, published 2026).

The conditions of data set [1]: human, oral; cited from earlier work.
The nature of data set [2]: biorelevant non-sink dissolution experiment. The format is physicochemical. The conditions noted are these: 37° C. As for the experimental part:
The preliminary dissolution performance of the SD samples and bulk Compound 1 was tested in a biorelevant non-sink dissolution experiment. About 0.5 mg SD samples were dispersed into 6 mL SGF medium firstly and stirred magnetically with 250 rpm at 37° C. After 30 min, 5 mL cFaSSIF-V2 (2×) medium was added into the above medium and adjusted the pH to 6.5 with 100 μL NaHCO3 (80 g/L). At each time point of 15 and 30 min in SGF and 15, 30, 60, 120 min in FaSSIF, 0.5 mL suspension was taken out and centrifuged. The supernatants were analyzed by HPLC.

The nature of data set [3]: Dog IV study with and without oral charcoal administration (Example 10). The data set is classed as in vivo, male non-naïve Beagle dogs. The conditions noted are these: 0.10 mg/kg. How it is done:
A 0.1 mg/mL solution of Compound 1 in 10% DMSO/10% Solutol HS15/80% Saline was prepared as follows: • 1) 4.63 mg Compound 1 was weighed into appropriately sized tube. • 2) 4.57 mL of DMSO was added into the tube. Vortexed for 2 minutes. • 3) 4.57 mL of Solutol HS15 was added into above tube. Vortexed for 2 minutes. • 4) 36.54 mL of saline was added. Vortex for 1 minute.
A 100 mg/mL suspension of Activated Charcoal in Saline was prepared as follows: • 1) 300 g Activated Charcoal was weighed into appropriately sized tube. • 2) 3000 mL of saline was added into the tube. • 3) Mixture was stirred for 10 minutes, and then sonicated for 10 minutes.
Two groups of Male non-naïve beagles were used for the dog PK study (n=2 per group). The prepared oral formulation was administered via oral administration with 25 gram dose of activated charcoal to Group 2 animals. Immediately after the PO administration, the prepared IV formulation was administered via 10 minutes IV infusion to both Group 1 and Group 2 animals with appropriate dosing volume to achieve the respective doses. Group 1 animals were fed before administration. Group 2 animals were fasted overnight before administration and were fed at 4 hours post oral administration.
At each time point, approximately 0.5 mL of whole blood was collected into K2EDTA tubes. […] Plasma samples were stored at approximately −80° C. until analyzed by LC-MS.

For data set [4], the system named is carbonic anhydrase I. The data set is described as follows: carbonic anhydrase inhibition, CA I. The format is biochemical. From the text: Carbonic anhydrase inhibition can be measured using a carbonic anhydrase I assay as described in Katritzky et al. (J. Med. Chem. 1987, 30:2058) and a […] as described in Iyer et al. (J. Biomol. Screen 2006, 11:782).

In data set [5] the test system is carbonic anhydrase II. The data set is described as follows: carbonic anhydrase inhibition, CA II. The data set is classed as biochemical.
Data set [6] is described as follows: predicted human PK by allometric scaling. The conditions noted are these: allometric scaling from multiple species.
For data set [7], the system named is recurrent genital herpes (HSV). The conditions noted are these: human, oral, 100, 200, 400 and 1200 mg vs placebo; cited from earlier work.
Data set [8] relates to genital HSV. The conditions noted are these: human, oral, cited from earlier work.
For data set [9] the following is noted: cited from earlier work.
Data set [10] relates to genital HSV-2. The conditions noted are these: human, oral, cited from earlier work.

Like-named read-outs stand apart in the source and are kept apart here.

In the case of `C[C@@H](c1ccccc1)N(CC(=O)Nc1ccc(-c2csc(N)n2)cc1)C(=O)c1ccncc1` [BILS-179 BS], the “adverse events in early clinical trials” value in data set [1] was “suspended in early clinical trials due to adverse events”.
Consider `Cc1nc(N2CCCN(c3ccc(-c4cc(F)ccc4F)cc3)C2=O)sc1S(N)(=O)=O` [Compound 1, 2-(3-(2′,5′-difluoro-[1,1′-biphenyl]-4-yl)-2-oxotetrahydropyrimidin-1(2H)-yl)-4-methylthiazole-5-sulfonamide], for which the “Concentration in FaSSIF at 45 min” value in [2] (FaSSIF (pH 6.5), 45 min) was found to be 140 ng/mL. In [2] (FaSSIF (pH 6.5), 60 min), the “Concentration in FaSSIF at 60 min” value came to 120 ng/mL. The “Concentration in FaSSIF at 90 min” value in data set [2] (FaSSIF (pH 6.5), 90 min) was 140 ng/mL. Also, the “Concentration in FaSSIF at 150 min” value in data set [2] (FaSSIF (pH 6.5), 150 min) was determined as 120 ng/mL. Moreover, in data set [2] (SGF (pH 1.7), 15 min), the “Concentration in SGF at 15 min” value worked out at 100 ng/mL. In addition, in data set [2] (SGF (pH 1.7), 30 min), the “Concentration in SGF at 30 min” value was 70 ng/mL. Besides, in [3], the “clearance without versus with oral charcoal” value is reported as “slower” and the “overall exposure without versus with oral charcoal” value was “higher”. The “carbonic anhydrase I inhibition” value in data set [4] was “no or low levels of carbonic anhydrase inhibition”. For the same compound, the “carbonic anhydrase II inhibition” value in [5] is “no or low levels of carbonic anhydrase inhibition”. Moreover, in data set [6], the predicted human clearance is 0.06 L/h.
On to `Cc1cccc(C)c1N(CC(=O)Nc1ccc(-c2ncon2)cc1)C(=O)C1CCS(=O)(=O)CC1` [amenamevir], for which the “adverse events in early clinical trials” value in [1] is on record as “suspended from early HSV clinical trials due to adverse events”. Further, the “time to lesion healing” value in data set [7] was “only significantly different between the very highest 1200 mg single dose group and the placebo-tested group”.
Turning to `Cc1nc(N(C)C(=O)Cc2ccc(-c3ccccn3)cc2)sc1S(N)(=O)=O` [pritelivir, N-Methyl-N-(4-methyl-5-sulfamoyl-1,3-thiazol-2-yl)-2-[4-(pyridin-2-yl)phenyl]acetamide], in [8] (75 mg daily), the “break-through shedding at 75 mg daily” value was “break-through shedding remained”. In data set [8] (daily 75 mg vs weekly 400 mg), the antiviral effect entry was “An oral daily dose of 75 mg had the greatest antiviral effect and this was found to be superior to the less frequently administered weekly dose of 400 mg”. Further, the “number of days with lesions” value in data set [8] (genital herpes) is listed as “reduced the number of days with lesions”. Besides, the “rate of genital HSV shedding” value in [8] (high doses, 28 days) is listed as “reduced the rate of genital HSV shedding”. Moreover, the “free fraction of total plasma concentration” value in data set [9] is recorded as 2-3%. Moreover, in [9] (plasma), the protein binding is recorded as 97-98%. Further, the “genital swabs with HSV shedding” value in [10] (100 mg daily after 400 mg loading dose, 28 days) was 2.4%.
For `CC(C)[C@H](N)C(=O)OCCOCn1cnc2c(=O)[nH]c(N)nc21` [valacyclovir], in data set [10] (500 mg daily), the “genital swabs with HSV shedding” value is 5.3%.
